Reference: patent publication US20240309038A1, “NOVEL GALACTOSIDE INHIBITOR OF GALECTINS” (GALECTO BIOTECH AB, priority 2020, published 2024)

Columns and labels:
[1] = CACO-2 A > B permeability; type: in vitro ADME; settings: human
Description: The compounds of the present invention are novel β-D-galactopyranose compounds that unexpectedly have shown high affinity for galectin-3 and are considered novel potent drug candidates. In addition, it is seen that with these compounds the advantage is that the pyrazole moiety A^1 results in an improved uptake over CACO-2 cells predicting high oral bioavailability after oral administration and this is supported by disclosed ADME data herein. Further compared to compounds where A^1 is a triazole moiety this improvement is significant.

Human hepatic Clint = type: in vitro ADME
Gal-3 = Gal-3 (Homo sapiens, UniProt P17931); assay: Fluorescence anisotropy assay, inhibition of galectin / fluorescein tagged saccharide probe interaction; type: binding
Protocol: The affinity of Example 1-59 for galectins were determined by a fluorescence anisotropy assay where the compound was used as an inhibitor of the interaction between galectin and a fluorescein tagged saccharide probe as described Sörme, P., Kahl-Knutsson, B., Huflejt, M., Nilsson, U. J., and Leffler H. (2004) Fluorescence polarization as an analytical tool to evaluate galectin-ligand interactions. Anal. Biochem. 334: 36-47, (Sarme et al., 2004)

Sequence of Gal-3 (P17931 whole entry, species assumed): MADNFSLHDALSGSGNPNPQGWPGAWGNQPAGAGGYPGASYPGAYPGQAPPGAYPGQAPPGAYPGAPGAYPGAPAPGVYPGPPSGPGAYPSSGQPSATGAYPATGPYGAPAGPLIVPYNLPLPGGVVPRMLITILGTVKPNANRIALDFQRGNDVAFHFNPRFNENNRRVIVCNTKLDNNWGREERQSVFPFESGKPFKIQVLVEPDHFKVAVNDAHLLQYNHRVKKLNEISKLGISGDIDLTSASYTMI

Papp A→B [1] [×10⁻⁶ cm/s] | CLint scaled (Human hepatic Clint) [mL/min/kg] | Kd (Gal-3) [µM] | Structure (SMILES)
– | – | 0.037 | Cc1nc([C@@H]2OC(CO)[C@H](O)C(n3cc(-c4cc(F)c(F)c(F)c4)cn3)C2O)n(-c2cc(Cl)ccc2C#N)n1 (stereo in doubt) [Example 27, 5-Chloro-2-cyano-1-{5-{3-deoxy-3-[4-(3,4,5-trifluorophenyl)-1H-1,2-pyrazol-1-yl]-β-D-galactopyranosyl}-3-methyl-1H-1,2,4-triazol-1-yl}benzene]
– | – | 0.015 | Cc1nc([C@@H]2OC(CO)[C@H](O)C(n3cc(-c4cc(F)c(F)c(F)c4)c(C#N)n3)C2O)n(-c2cc(Cl)ccc2C(F)(F)F)n1 (stereo in doubt) [Example 51, 5-Chloro-1-{5-{3-[3-cyano-4-(3,4,5-trifluorophenyl)-1H-1,2-pyrazol-1-yl]-3-deoxy-β-D-galactopyranosyl}-3-methyl-1H-1,2,4-triazol-1-yl}-2-(trifluoromethyl)benzene]
– | – | 0.06 | C#Cc1c(F)cc(-c2cnn(C3C(O)[C@H](c4nc(C)nn4-c4cc(Cl)ccc4C(F)(F)F)OC(CO)[C@@H]3O)c2)cc1F (stereo in doubt) [Example 17, 5-Chloro-1-{5-{3-deoxy-3-[4-(4-ethynyl-3,5-difluorophenyl)-1H-1,2-pyrazol-1-yl]-β-D-galactopyranosyl}-3-methyl-1H-1,2,4-triazol-1-yl}-2-(trifluoromethyl)benzene]
– | – | 0.012 | Cc1nc([C@@H]2OC(CO)[C@H](O)C(n3cc(-c4cc(F)c(F)c(F)c4)cn3)C2O)n(-c2cc(C#N)c3nc(C)sc3c2)n1 (stereo in doubt) [Example 42, 4-Cyano-6-{5-{3-deoxy-3-[4-(3,4,5-trifluorophenyl)-1H-1,2-pyrazol-1-yl]-β-D-galactopyranosyl}-3-methyl-1H-1,2,4-triazol-1-yl}-2-methylbenzothiazole]
– | – | 0.082 | Cc1nc([C@@H]2OC(CO)[C@H](O)C(n3cc(-c4cc(F)c(F)c(F)c4)cn3)C2O)n(-c2cc(Cl)cnc2C#N)n1 (stereo in doubt) [Example 21, 5-Chloro-2-cyano-3-{5-{3-deoxy-3-[4-(3,4,5-trifluorophenyl)-1H-1,2-pyrazol-1-yl]-β-D-galactopyranosyl}-3-methyl-1H-1,2,4-triazol-1-yl}pyridine]
– | – | 0.026 | C#CCc1c(F)cc(-c2cnn(C3C(O)[C@H](c4nc(C)nn4-c4cc(Cl)ccc4C(F)(F)F)OC(CO)[C@@H]3O)c2)cc1F (stereo in doubt) [Example 18, 5-Chloro-1-{5-{3-deoxy-3-{4-[3,5-difluoro-4-(2-propyn-1-yl)phenyl]-1H-1,2-pyrazol-1-yl}-β-D-galactopyranosyl}-3-methyl-1H-1,2,4-triazol-1-yl}-2-(trifluoromethyl)benzene]
– | – | 0.054 | Cc1nc([C@@H]2OC(CO)[C@H](O)C(n3cc(-c4cc(F)c(F)c(F)c4)c(-c4ccccc4F)n3)C2O)n(-c2cc(Cl)ccc2C(F)(F)F)n1 (stereo in doubt) [Example 48, 5-Chloro-1-{5-{3-deoxy-3-[4-(3,4,5-trifluorophenyl)-3-(2-fluorophenyl)-1H-1,2-pyrazol-1-yl]-β-D-galactopyranosyl}-3-methyl-1H-1,2,4-triazol-1-yl}-2-(trifluoromethyl)benzene]

Further lines, the compound ahead of its results:

Structure (SMILES) | Papp A→B [1] [×10⁻⁶ cm/s] | CLint scaled (Human hepatic Clint) [mL/min/kg] | Kd (Gal-3) [µM]
Cc1nc([C@@H]2OC(CO)[C@H](O)C(n3cc(-c4cc(F)c(F)c(F)c4)cn3)C2O)n(-c2ccc3nc(C)sc3c2)n1 (stereo in doubt) [Example 8, 6-{5-{3-Deoxy-3-[4-(3,4,5-trifluorophenyl)-1H-1,2-pyrazol-1-yl]-β-D-galactopyranosyl}-3-methyl-1H-1,2,4-triazol-1-yl}-2-methylbenzothiazole] | 17 | 0.3 | 0.022
Cc1nc([C@@H]2OC(CO)[C@H](O)C(n3cc(-c4cc(F)c(F)c(F)c4)cn3)C2O)n(-c2cc(Cl)cnc2C2CC2)n1 (stereo in doubt) [Example 13, 5-Chloro-3-{5-{3-deoxy-3-[4-(3,4,5-trifluorophenyl)-1H-1,2-pyrazol-1-yl]-β-D-galactopyranosyl}-3-methyl-1H-1,2,4-triazol-1-yl}-2-cyclopropylpyridine] | 10 | 0.2 | 0.015
Cc1nc([C@@H]2OC(CO)[C@H](O)C(n3cc(-c4cc(F)c(Cl)c(F)c4)cn3)C2O)n(-c2cc(Cl)cnc2C2CC2)n1 (stereo in doubt) [Example 1, 3-{5-{3-[4-(4-Chloro-3,5-difluorophenyl)-1H-1,2-pyrazol-1-yl]-3-deoxy-β-D-galactopyranosyl}-3-methyl-1H-1,2,4-triazol-1-yl}-5-chloro-2-cyclopropylpyridine] | 18 | 1.3 | 0.032
Cc1nc([C@@H]2OC(CO)[C@H](O)C(n3cc(-c4cc(F)c(Cl)c(F)c4)cn3)C2O)n(-c2cc(Cl)ccc2C(F)(F)F)n1 (stereo in doubt) [Example 5, 1-{5-{3-[4-(4-Chloro-3,5-difluorophenyl)-1H-1,2-pyrazol-1-yl]-3-deoxy-β-D-galactopyranosyl}-3-methyl-1H-1,2,4-triazol-1-yl}-5-chloro-2-(trifluoromethyl)benzene] | 18 | 0.4 | 0.006
Cc1nc([C@@H]2OC(CO)[C@H](O)C(n3cc(-c4cc(F)ccn4)cn3)C2O)n(-c2cc(Cl)ccc2C(F)(F)F)n1 (stereo in doubt) [Example 7, 5-Chloro-1-{5-{3-deoxy-3-[4-(4-fluoropyridin-2-yl)-1H-1,2-pyrazol-1-yl]-β-D-galactopyranosyl}-3-methyl-1H-1,2,4-triazol-1-yl}-2-(trifluoromethyl)benzene] | – | – | 0.082
Cc1nc2ccc(-n3cnnc3[C@@H]3OC(CO)[C@H](O)C(n4cc(-c5cc(F)c(F)c(F)c5)cn4)[C@@H]3O)cc2s1 (stereo partly drawn) [Example 2, 6-{3-{3-Deoxy-3-[4-(3,4,5-trifluorophenyl)-1H-1,2-pyrazol-1-yl]-β-D-galactopyranosyl}-4H-1,2,4-triazol-4-yl}-2-methylbenzothiazole] | – | – | 0.039
Cc1nc([C@@H]2OC(CO)[C@H](O)C(n3cc(-c4cc(F)c(Cl)c(F)c4)cn3)C2O)n(-c2ccc3nc(C)sc3c2)n1 (stereo in doubt) [Example 9, 6-{5-{3-[4-(4-Chloro-3,5-difluorophenyl)-1H-1,2-pyrazol-1-yl]-3-deoxy-β-D-galactopyranosyl}-3-methyl-1H-1,2,4-triazol-1-yl}-2-methylbenzothiazole] | 20 | 0.6 | 0.012
Cc1nc([C@@H]2OC(CO)[C@H](O)C(n3cc(-c4cccc(F)n4)cn3)C2O)n(-c2cc(Cl)ccc2C(F)(F)F)n1 (stereo in doubt) [Example 6, 5-Chloro-1-{5-{3-deoxy-3-[4-(6-fluoropyridin-2-yl)-1H-1,2-pyrazol-1-yl]-β-D-galactopyranosyl}-3-methyl-1H-1,2,4-triazol-1-yl}-2-(trifluoromethyl)benzene] | – | – | 0.13
